Test results taken from patent US7550456B2, “Substituted aryl cycloalkanoyl derivatives and methods of their use” (Wyeth, priority 2003, dated 2009).
Structures can show the parent of a compound that is named as a salt. Where two headings read alike, the source gives them in different places.

Biological target: T1, human hNET (Homo sapiens, UniProt P23975)
T1 construct: expressed in transfected cells; host or cells: MDCK-Net6 (MDCK cells, stably transfected)
Experiment: Norepinephrine (NE) uptake assay in MDCK-Net6 cells
Type: cell-based
Details: for EC50: test range 1 to 10,000 nM
Protocol: Cells were plated at 300,000/T75 flask and cells were split twice weekly. […] Cells were plated at 250,000 cells/T75 flask and split twice weekly.
Norepinephrine (NE) Uptake Assay
On day 1, cells were plated at 3,000 cells/well in growth medium and maintained in a cell incubator (37° C., 5% CO2). On day 2, growth medium was replaced with 200 μl of assay buffer (25 mM HEPES; 120 mM NaCl; 5 mM KCl; 2.5 mM CaCl2; 1.2 mM MgSO4; 2 mg/ml glucose (pH 7.4, 37° C.)) containing 0.2 mg/ml ascorbic acid and 10 μM pargyline. Plates containing cells with 200 μl of assay buffer were equilibrated for 10 minutes at 37° C. prior to addition of compounds. A stock solution of desipramine was prepared in DMSO (10 mM) and delivered to triplicate wells containing cells for a final test concentration of 1 μM. Data from these wells were used to define non-specific NE uptake (minimum NE uptake). Test compounds were prepared in DMSO (10 mM) and diluted in assay buffer according to test range (1 to 10,000 nM). Twenty-five microliters of assay buffer (maximum NE uptake) or test compound were added directly to triplicate wells containing cells in 200 μl of assay buffer. The cells in assay buffer with test compounds were incubated for 20 minutes at 37° C. […] The reaction was terminated by decanting the supernatant from the plate. The plates containing cells were washed twice with 200 μl assay buffer (37° C.) to remove free radioligand. The plates were then inverted, left to dry for 2 minutes, then reinverted and air-dried for an additional 10 minutes. The cells were lysed in 25 μl of 0.25 N NaOH solution (4° C.), placed on a shake table and vigorously shaken for 5 minutes. After cell lysis, 75 μl of scintillation cocktail was added to each well and the plates were sealed with film tape. The plates were returned to the shake table and vigorously shaken for a minimum of 10 minutes to ensure adequate partitioning of organic and aqueous solutions. The plates were counted in a Wallac Microbeta counter (PerkinElmer) to collect the raw cpm data.
For each experiment, a data stream of cpm values collected from the Wallac Microbeta counter was downloaded to a Microsoft Excel statistical application program. Calculations of EC50 values were made using the transformed-both-sides logistic dose response program written by Wyeth Biometrics Department.

[1] = 1 μM test compound, [3H]NE uptake, read-out: % Inhibition @ 1 μM (hNET)
[2] = MDCK-Net6, read-out: % Inhibition @ 1 μM (hNET), 1 μM test compound, [3H]NE uptake

T1 sequence (P23975 whole entry): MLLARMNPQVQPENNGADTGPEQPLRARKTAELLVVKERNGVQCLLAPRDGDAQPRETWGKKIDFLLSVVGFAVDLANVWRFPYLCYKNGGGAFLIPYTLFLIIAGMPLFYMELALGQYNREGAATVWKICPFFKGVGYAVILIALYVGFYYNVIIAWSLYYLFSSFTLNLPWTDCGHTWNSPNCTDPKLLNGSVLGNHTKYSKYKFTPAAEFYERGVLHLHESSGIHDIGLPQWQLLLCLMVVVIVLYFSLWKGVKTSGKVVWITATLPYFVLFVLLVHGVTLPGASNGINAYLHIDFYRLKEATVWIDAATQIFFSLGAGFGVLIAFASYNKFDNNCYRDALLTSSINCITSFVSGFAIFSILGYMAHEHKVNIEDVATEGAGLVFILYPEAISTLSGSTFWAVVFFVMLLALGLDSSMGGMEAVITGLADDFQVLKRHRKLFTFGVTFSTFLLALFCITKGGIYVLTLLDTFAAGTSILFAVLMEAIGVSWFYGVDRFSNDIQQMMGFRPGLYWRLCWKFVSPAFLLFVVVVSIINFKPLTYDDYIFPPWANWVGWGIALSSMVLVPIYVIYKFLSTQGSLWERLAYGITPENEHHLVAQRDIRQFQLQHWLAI

| inhibition at 1 µM [1] [%] | SMILES | further results |
| --- | --- | --- |
| 54 | OC1(C(CN2CCNCC2)c2ccc(-c3ccccc3)cc2)CCCCC1 (stereo not drawn) [Example 157, 1-[1-(1,1′-biphenyl-4-yl)-2-piperazin-1-ylethyl]cyclohexanol dihydrochloride] |  |
| 57 | CN1CCN(CC(c2ccc(-c3ccccc3)cc2)C2(O)CCCCC2)CC1 (stereo not drawn) [Example 158, 1-[1-(1,1′-biphenyl-4-yl)-2-(4-methylpiperazin-1-ylethyl]cyclohexanoldihydrochloride] |  |
| 48 | OC1(C(CN2CCNCC2)c2ccc(-c3cccc(F)c3)cc2)CCCCC1 (stereo not drawn) [Example 166, 1-[1-(3′-fluoro-1,1′-biphenyl-4-yl)-2-piperazin-1-ylethyl]cyclohexanol dihydrochloride] |  |
| 25 | OC1(C(CN2CCNCC2)c2ccc(-c3cccc(Cl)c3)cc2)CCCCC1 (stereo not drawn) [Example 167, 1-[1-(3′-chloro-1,1′-biphenyl-4-yl)-2-piperazin-1-ylethyl]cyclohexanol dihydrochloride] |  |
| 19 | COc1cccc(-c2ccc(C(CN3CCNCC3)C3(O)CCCCC3)cc2)c1 (stereo not drawn) [Example 170, 1-[1-(3′-methoxy-1,1′-biphenyl-4-yl)-2-piperazin-1-ylethyl]cyclohexanol dihydrochloride] |  |
| 55 | OC1(C(CN2CCNCC2)c2ccc(-c3ccc(Cl)cc3)cc2)CCCCC1 (stereo not drawn) [Example 172, 1-[1-(4′-chloro-1,1′-biphenyl-4-yl)-2-piperazin-1-ylethyl]cyclohexanol dihydrochloride] |  |
| 20 | CN1CCN(CC(c2ccc(-c3ccccc3Cl)cc2)C2(O)CCCCC2)CC1 (stereo not drawn) [Example 175, 1-[1-(2′-chloro-1,1′-biphenyl-4-yl)-2-(4-methylpiperazin-1-yl)ethyl]cyclohexanol dihydrochloride] |  |
| 28 | CN1CCN(CC(c2ccc(-c3cccc(Cl)c3)cc2)C2(O)CCCCC2)CC1 (stereo not drawn) [Example 176, 1-[1-(3′-chloro-1,1′-biphenyl-4-yl)-2-(4-methylpiperazin-1-yl)ethyl]cyclohexanol dihydrochloride] |  |
| 54 | CN1CCN(CC(c2ccc(-c3cccc(C#N)c3)cc2)C2(O)CCCCC2)CC1 (stereo not drawn) [Example 177, 1-[1-(3′-cyano-1,1′-biphenyl-4-yl)-2-(4-methylpiperazin-1-yl)ethyl]cyclohexanol dihydrochloride] |  |
| 33 | CN1CCN(CC(c2ccc(-c3cccc([N+](=O)[O-])c3)cc2)C2(O)CCCCC2)CC1 (stereo not drawn) [Example 178, 1-[2-(4-methylpiperazin-1-yl)-1-(3′-nitro-1,1′-biphenyl-4-yl)ethyl]cyclohexanol dihydrochloride] |  |
| 27 | COc1cccc(-c2ccc(C(CN3CCN(C)CC3)C3(O)CCCCC3)cc2)c1 (stereo not drawn) [Example 179, 1-[1-(3′-methoxy-1,1′-biphenyl-4-yl)-2-(4-methylpiperazin-1-yl)ethyl]cyclohexanol dihydrochloride] |  |
| 47 | CN1CCN(CC(c2ccc(-c3ccc(F)cc3)cc2)C2(O)CCCCC2)CC1 (stereo not drawn) [Example 180, 1-[1-(4′-fluoro-1,1′-biphenyl-4-yl)-2-(4-methylpiperazin-1-yl)ethyl]cyclohexanol dihydrochloride] |  |
| 31 | Cc1ccc(-c2ccc(C(CN3CCN(C)CC3)C3(O)CCCCC3)cc2)cc1 (stereo not drawn) [Example 181, 1-[1-(4′-methyl-1,1′-biphenyl-4-yl)-2-(4-methylpiperazin-1-yl)ethyl]cyclohexanol dihydrochloride] |  |

More lines, now with the values behind:

| SMILES | inhibition at 1 µM [1] [%] | further results |
| --- | --- | --- |
| OC1(C(CN2CCNCC2)c2cccc(-c3ccc(Cl)c(Cl)c3)c2)CCC1 (stereo not drawn) [Example 153, 1-[1-(3′,4′-dichloro-1,1′-biphenyl-3-yl)-2-piperazin-1-ylethyl]cyclobutanol dihydrochloride] | 2 |  |
| N#Cc1cccc(C(CN2CCNCC2)C2(O)CCCCC2)c1 (stereo not drawn) [Example 160, 1-[1-(3-cyanophenyl)-2-piperazin-1-ylethyl]cyclohexanol dihydrochloride] | 50 |  |
| CN1CCN(CC(c2cccc(C#N)c2)C2(O)CCCCC2)CC1 (stereo not drawn) [Example 161, 1-[1-(3-cyanophenyl)-2-(4-methylpiperazin-1-yl)ethyl]cyclohexanol dihydrochloride] | 70 | EC50 ([3H]NE uptake): 220 nM |
| C=Cc1cccc(C(CN2CCNCC2)C2(O)CCCCC2)c1 (stereo not drawn) [Example 162, 1-[2-piperazin-1-yl-1-(3-vinylphenyl)ethyl]cyclohexanol dihydrochloride] | 78 | EC50 ([3H]NE uptake): 410 nM |
| C=Cc1ccc(C(CN2CCNCC2)C2(O)CCCCC2)cc1 (stereo not drawn) [Example 163, 1-[2-piperazin-1-yl-1-(4-vinylphenyl)ethyl]cyclohexanol dihydrochloride] | 17 |  |
| CC#Cc1ccc(C(CN2CCNCC2)C2(O)CCCCC2)cc1 (stereo not drawn) [Example 164, 1-[2-piperazin-1-yl-1-(4-prop-1-ynylphenyl)ethyl]cyclohexanol dihydrochloride] | 56 |  |
| OC1(C(CN2CCNCC2)c2ccc(-c3ccccc3Cl)cc2)CCCCC1 (stereo not drawn) [Example 165, 1-[1-(2′-chloro-1,1′-biphenyl-4-yl)-2-piperazin-1-ylethyl]cyclohexanol dihydrochloride] | 13 |  |
| N#Cc1cccc(-c2ccc(C(CN3CCNCC3)C3(O)CCCCC3)cc2)c1 (stereo not drawn) [Example 168, 1-[1-(3′-cyano-1,1′-biphenyl-4-yl)-2-piperazin-1-ylethyl]cyclohexanol dihydrochloride] | 66 | EC50 ([3H]NE uptake): 180 nM |
| O=[N+]([O-])c1cccc(-c2ccc(C(CN3CCNCC3)C3(O)CCCCC3)cc2)c1 (stereo not drawn) [Example 169, 1-[1-(3′-nitro-1,1′-biphenyl-4-yl)-2-piperazin-1-ylethyl]cyclohexanol dihydrochloride] | 69 | EC50 ([3H]NE uptake): 850 nM |
| OC1(C(CN2CCNCC2)c2ccc(-c3cccc(OC(F)(F)F)c3)cc2)CCCCC1 (stereo not drawn) [Example 171, 1-{2-piperazin-1-yl-1-[3′-(trifluoromethoxy)-1,1′-biphenyl-4-yl]ethyl}cyclohexanol dihydrochloride] | 32 |  |
| OC1(C(CN2CCNCC2)c2ccc(-c3ccc(Cl)c(Cl)c3)cc2)CCCCC1 (stereo not drawn) [Example 173, 1-[1-(3′,4′-dichloro-1,1′-biphenyl-4-yl)-2-piperazin-1-ylethyl]cyclohexanol dihydrochloride] | 35 |  |
| OC1(C(CN2CCNCC2)c2ccc(-c3ccsc3)cc2)CCCCC1 (stereo not drawn) [Example 174, 1-[2-piperazin-1-yl-1-(4-thien-3-ylphenyl)ethyl]cyclohexanol dihydrochloride] | 2 |  |
| OC1(C(CN2CCNCC2)c2ccc(-c3cccc(Cl)c3)cc2)CCC1 (stereo not drawn) [Example 182, 1-[1-(3′-chloro-1,1′-biphenyl-4-yl)-2-piperazin-1-ylethyl]cyclobutanol dihydrochloride] | 43 |  |
| OC1(C(CN2CCNCC2)c2ccc(-c3cccc(OC(F)(F)F)c3)cc2)CCC1 (stereo not drawn) [Example 183, 1-{2-piperazin-1-yl-1-[3′-(trifluoromethoxy)-1,1′-biphenyl-4-yl]ethyl}cyclobutanol dihydrochloride] | 16 |  |
| OC1(C(CN2CCNCC2)c2ccc(-c3ccc(Cl)c(Cl)c3)cc2)CCC1 (stereo not drawn) [Example 184, 1-[1-(3′,4′-dichloro-1,1′-biphenyl-4-yl)-2-piperazin-1-ylethyl]cyclobutanol dihydrochloride] | 40 |  |
| OC1(C(CN2CCNCC2)c2ccc(-c3cc(Cl)cc(Cl)c3)cc2)CCC1 (stereo not drawn) [Example 185, 1-[1-(3′,5′-dichloro-1,1′-biphenyl-4-yl)-2-piperazin-1-ylethyl]cyclobutanol dihydrochloride] | 27 |  |
| OC1([C@H](CN2CCNCC2)c2cccc(OC(F)(F)F)c2)CCCCC1 [Example 243, 1-{(1S)-2-piperazin-1-yl-1-[3-(trifluoromethoxy)phenyl]ethyl}cyclohexanol dihydrochloride] |  | % Inhibition @ 1 μM (hNET) (1 μM test compound, [3H]NE uptake, dihydrochloride, 1 µM): 91% |
| CN1CCN(C[C@H](c2cccc(OC(F)(F)F)c2)C2(O)CCCCC2)CC1 [Example 245, 1-{(1S)-2-(4-methylpiperazin-1-yl)-1-[3-(trifluoromethoxy)phenyl]ethyl}cyclohexanol dihydrochloride] |  | inhibition at 1 µM [2]: 88% |
| CN1CCN(C[C@@H](c2cccc(OC(F)(F)F)c2)C2(O)CCCCC2)CC1 [Example 246, 1-{(1R)-2-(4-methylpiperazin-1-yl)-1-[3-(trifluoromethoxy)phenyl]ethyl}cyclohexanol dihydrochloride] |  | inhibition at 1 µM [2]: 7.4% |
